The results in this text go back to ChEMBL document CHEMBL3217557, “Triazole-substituted N-hydroxyindol-2-carboxylates as inhibitors of isoform 5 of human lactate dehydrogenase (hLDH5)” (Medchemcomm, 2011).

In experiment [1] the target is T1, L-lactate dehydrogenase A chain (Homo sapiens, UniProt P00338). Nature of the experiment: Inhibition of human LDHA4 using sodium pyruvate as substrate assessed as NADH oxidation at 125 uM measured every 30 secs for 5 mins by spectrophotometric analysis relative to control.
Experiment [2] concerns the target T1, L-lactate dehydrogenase A chain. As to the kind of experiment: Competitive inhibition of human LDHA4 using sodium pyruvate as substrate measured every 30 secs for 5 mins by Lineweaver-Burk plot analysis in presence of 12.5 to 150 uM NADH.
The species named for experiment [3] is Homo sapiens. As to the kind of experiment: Inhibition of human LDH1 using sodium pyruvate as substrate assessed as NADH oxidation at 125 uM measured every 30 secs for 5 mins by spectrophotometric analysis relative to control.
For experiment [4], the target named is T1, L-lactate dehydrogenase A chain. Nature of the experiment: Competitive inhibition of human LDHA4 using 0.025 to 1 mM sodium pyruvate as substrate measured every 30 secs for 5 mins by Lineweaver-Burk plot analysis in presence of NADH.
A short description of experiment [5]: Competitive inhibition of human LDH1 using sodium pyruvate as substrate measured every 30 secs for 5 mins by Lineweaver-Burk plot analysis in presence of 12.5 to 150 uM NADH.

As a reminder, the inhibition is the drop in the measured response relative to a control, in per cent. One may read the Ki as the equilibrium dissociation constant of an inhibitor or competing ligand from its target.

Consider `O=C(O)c1cc2ccc(-n3cc(CCCc4cn(-c5ccc6cc(C(=O)O)n(O)c6c5)nn4)nn3)cc2n1O`, for which the inhibition worked out at 83% in experiment [1] and 32% in experiment [3]. For the same compound, the Ki in experiment [2] is 20 µM; in experiment [4], 37 µM.

Take `O=C(O)c1cccc(-c2cn(-c3ccc4cc(C(=O)O)n(O)c4c3)nn2)c1`: the figures for the inhibition in experiment [1] and in experiment [3] were 65% and less than 3%, respectively. For the same compound, the inhibition constant Ki in experiment [2] worked out at 50 µM; in experiment [4], 45 µM.

Turning to `O=C(O)c1cc2c(-n3cc(-c4ccccc4)nn3)cccc2n1O`, the inhibition is 73% in experiment [1] and less than 3% in experiment [3]. The Ki in experiment [2] worked out at 28 µM; in experiment [4], 44 µM.

In the case of `CCCCc1cn(-c2cccc3c2cc(C(=O)O)n3O)nn1`, in experiment [1], the inhibition is less than 15%.

`O=C(O)c1cc2c(-n3cc(CCO)nn3)cccc2n1O`: the inhibition in experiment [1] was less than 15%.

Turning to `O=C(O)c1cccc(-c2cn(-c3ccc4c(c3)cc(C(=O)O)n4O)nn2)c1`, the inhibition in experiment [1] was less than 15%.

As for `O=C(O)c1cccc(-c2cn(-c3cccc4c3cc(C(=O)O)n4O)nn2)c1`, the inhibition in experiment [1] and in experiment [3] was 60% each time. The Ki worked out at 57 µM in experiment [2], 89 µM in experiment [5] and 86 µM in experiment [4].

For `O=C(O)c1cc2cc(-n3cc(-c4ccccc4)nn3)ccc2n1O`, in experiment [1], the inhibition was less than 15%.
